Experiments:
hSERT L563A [1] = biological target: T1, hSERT L563A (Homo sapiens, UniProt P31645, L563A); assay: APP^+ uptake, hSERT L563A; format: cell-based; details: S2 site mutant, read-out: SYR IC50 for Transport
T1 construct: forward and reverse primers were used to amplify a full-length hSERT; expressed in transfected cells; host or cells: HeLa

hSERT I327A = biological target: T2, hSERT I327A (Homo sapiens, UniProt P31645, I327A); assay: ASP^+ binding, hSERT I327A; details: S2 site mutant, read-out: SYR IC50 for Binding
T2 construct: forward and reverse primers were used to amplify a full-length hSERT; expressed in transfected cells; host or cells: HeLa cells, transient, pcDNA3.1

hSERT F556A = biological target: T3, hSERT F556A (Homo sapiens, UniProt P31645, F556A); assay: ASP^+ binding, hSERT F556A; details: S2 site mutant, read-out: SYR IC50 for Binding
T3 construct: forward and reverse primers were used to amplify a full-length hSERT; expressed in transfected cells; host or cells: HeLa cells, transient, pcDNA3.1

hSERT T583A [2] = biological target: T4, hSERT T583A (Homo sapiens, UniProt P31645, T583A); assay: ASP^+ binding, hSERT T583A; details: S2 site mutant, read-out: SYR IC50 for Binding
T4 construct: forward and reverse primers were used to amplify a full-length hSERT; expressed in transfected cells; host or cells: HeLa

hSERT Y579A = biological target: T5, hSERT Y579A (Homo sapiens, UniProt P31645, Y579A); assay: APP^+ uptake, hSERT Y579A; format: cell-based; details: S2 site mutant, read-out: SYR IC50 for Transport
T5 construct: forward and reverse primers were used to amplify a full-length hSERT; expressed in transfected cells; host or cells: HeLa

hSERT R564A [3] = biological target: T6, hSERT R564A (Homo sapiens, UniProt P31645, R564A); assay: APP^+ uptake, hSERT R564A; format: cell-based; details: S2 site mutant, read-out: SYR IC50 for Transport
T6 construct: forward and reverse primers were used to amplify a full-length hSERT; expressed in transfected cells; host or cells: HeLa

hSERT E493N [4] = biological target: T7, hSERT E493N (Homo sapiens, UniProt P31645, E493N); assay: APP^+ uptake, hSERT E493N; format: cell-based; details: S2 site mutant, read-out: SYR IC50 for Transport
T7 construct: forward and reverse primers were used to amplify a full-length hSERT; expressed in transfected cells; host or cells: HeLa cells, transient, pcDNA3.1

hSERT Y95F = biological target: T8, hSERT Y95F (Homo sapiens, UniProt P31645, Y95F); assay: APP^+ uptake, hSERT Y95F; format: cell-based; details: S1 site mutant, read-out: SYR IC50 for Transport
T8 construct: forward and reverse primers were used to amplify a full-length hSERT; expressed in transfected cells; host or cells: HeLa
Experimental: (§1) HeLa cells were cultured in Dulbecco’s Modified Eagle’s Medium supplemented with 10% fetal bovine serum, 100 units/mL penicillin, and 100 μg/mL streptomycin at 37 °C in a humidified 5% CO2 incubator. Cells grown at ~70% confluence in a 6 cm culture dish were transfected with hSERT cDNA in pcDNA3.1 by lipofectamine 2000. Transfected cells were incubated for 12 h at 37 °C with 5% CO2 and then transferred into 96-well plates. After being grown for an additional 12–16 h, the cells were then assayed for APP^+ uptake or ASP^+ binding.
Measurement of transport or ligand binding activity of SERT was performed by using its fluorescent substrate (APP^+) or ligand (ASP^+), respectively. The cells transiently expressing WT or mutants of hSERT were applied for various treatments. Briefly, the cells were washed twice with 100 μL KRH buffer containing 20 mM HEPES (Neofroxx, Einhausen, Germany), pH 7.4, 120 mM NaCl, 1.3 mM KCl, 2.2 mM CaCl2, 1.2 mM MgSO4, and 0.1% (w/v) glucose. APP^+ uptake was measured by adding 100 μL KRH buffer containing 2 μM APP^+ and incubating for 5 min at 22 °C. Excess APP^+ was then removed by 3× rapid washing with 100 μL KRH buffer each time. The extent of APP^+ accumulated in the cells was determined by fluorescence spectrometry with an Infinite 200 Pro microplate reader (Tecan, Männedorf, Switzerland). […]

hSERT L565A [5] = biological target: T9, hSERT L565A (Homo sapiens, UniProt P31645, L565A); assay: APP^+ uptake, hSERT L565A; format: cell-based; details: S2 site mutant, read-out: SYR IC50 for Transport
T9 construct: forward and reverse primers were used to amplify a full-length hSERT; expressed in transfected cells; host or cells: HeLa

hSERT D328A = biological target: T10, hSERT D328A (Homo sapiens, UniProt P31645, D328A); assay: ASP^+ binding, hSERT D328A; details: S2 site mutant, read-out: SYR IC50 for Binding
T10 construct: forward and reverse primers were used to amplify a full-length hSERT; expressed in transfected cells; host or cells: HeLa cells, transient, pcDNA3.1

[6] = test system: hSERT Q111N, G498T, P561G, Q562N; assay: ASP^+ binding, four S2 mutants compared with WT; set-up: species or system human; details: P561G, and Q562N
Experimental: as §1
ASP^+ binding to SERT expressed on the cell surface was measured with digitonin-permeabilized cells as described previously. The cells expressing WT or mutants of hSERT were incubated with 10 μM ASP^+ in the presence of 25 μg/mL digitonin at 22 °C for 5 min. After removing excess ASP^+ by 3× rapid washing, ASP^+ fluorescence retained in the cell membrane was determined by fluorescence spectrometry.
hSERT mutants were generated using the Mut Express II Fast Mutagenesis kit (Vazyme, Nanjing, China). Briefly, forward and reverse primers were used to amplify a full-length hSERT. The PCR products were then digested with restriction enzymes, excised from agarose gels, and ligated into pcDNA3.1. All mutations were confirmed by full-length DNA sequencing.

hSERT Q562N = biological target: T11, hSERT Q562N (Homo sapiens, UniProt P31645, Q562N); assay: ASP^+ binding, hSERT Q562N; details: S2 site mutant, read-out: SYR IC50 for Binding
T11 construct: forward and reverse primers were used to amplify a full-length hSERT; expressed in transfected cells; host or cells: HeLa

hSERT E493N [7] = biological target: T7, hSERT E493N; assay: ASP^+ binding, hSERT E493N; details: S2 site mutant, read-out: SYR IC50 for Binding
hSERT T583A [8] = biological target: T4, hSERT T583A; assay: APP^+ uptake, hSERT T583A; format: cell-based; details: S2 site mutant, read-out: SYR IC50 for Transport
hSERT L563A [9] = biological target: T1, hSERT L563A; assay: ASP^+ binding, hSERT L563A; details: S2 site mutant, read-out: SYR IC50 for Binding
hSERT L565A [10] = biological target: T9, hSERT L565A; assay: ASP^+ binding, hSERT L565A; details: S2 site mutant, read-out: SYR IC50 for Binding
hSERT R564A [11] = biological target: T6, hSERT R564A; assay: ASP^+ binding, hSERT R564A; details: S2 site mutant, read-out: SYR IC50 for Binding
hSERT S2 mutants = assay: APP^+ uptake or ASP^+ binding, all S2 mutants compared with WT; format: cell-based, human; details: all S2 mutants tested
Experimental: as §1
Measurement of transport or ligand binding activity of SERT was performed by using its fluorescent substrate (APP^+) or ligand (ASP^+), respectively. The cells transiently expressing WT or mutants of hSERT were applied for various treatments. […] APP^+ uptake was measured by adding 100 μL KRH buffer containing 2 μM APP^+ and incubating for 5 min at 22 °C. […] The extent of APP^+ accumulated in the cells was determined by fluorescence spectrometry with an Infinite 200 Pro microplate reader (Tecan, Männedorf, Switzerland).
ASP^+ binding to SERT expressed on the cell surface was measured with digitonin-permeabilized cells as described previously. […] After removing excess ASP^+ by 3× rapid washing, ASP^+ fluorescence retained in the cell membrane was determined by fluorescence spectrometry. […]

T4 sequence (P31645 whole entry T583A): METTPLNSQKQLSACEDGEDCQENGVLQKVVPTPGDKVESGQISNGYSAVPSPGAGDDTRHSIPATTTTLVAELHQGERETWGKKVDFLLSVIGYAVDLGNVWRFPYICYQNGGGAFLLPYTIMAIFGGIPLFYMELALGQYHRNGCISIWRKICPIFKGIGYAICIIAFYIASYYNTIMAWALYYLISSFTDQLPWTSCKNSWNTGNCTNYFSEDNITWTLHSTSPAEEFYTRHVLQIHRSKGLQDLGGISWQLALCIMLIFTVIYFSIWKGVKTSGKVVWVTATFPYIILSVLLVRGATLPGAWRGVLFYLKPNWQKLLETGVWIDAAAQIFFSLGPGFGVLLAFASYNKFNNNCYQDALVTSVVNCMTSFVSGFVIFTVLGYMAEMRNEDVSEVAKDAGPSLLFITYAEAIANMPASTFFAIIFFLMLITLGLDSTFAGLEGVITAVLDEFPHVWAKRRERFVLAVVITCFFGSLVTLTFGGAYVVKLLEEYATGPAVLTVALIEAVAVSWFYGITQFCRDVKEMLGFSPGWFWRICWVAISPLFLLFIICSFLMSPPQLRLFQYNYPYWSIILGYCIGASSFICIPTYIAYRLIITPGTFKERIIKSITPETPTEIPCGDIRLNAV
T7 sequence (P31645 whole entry E493N): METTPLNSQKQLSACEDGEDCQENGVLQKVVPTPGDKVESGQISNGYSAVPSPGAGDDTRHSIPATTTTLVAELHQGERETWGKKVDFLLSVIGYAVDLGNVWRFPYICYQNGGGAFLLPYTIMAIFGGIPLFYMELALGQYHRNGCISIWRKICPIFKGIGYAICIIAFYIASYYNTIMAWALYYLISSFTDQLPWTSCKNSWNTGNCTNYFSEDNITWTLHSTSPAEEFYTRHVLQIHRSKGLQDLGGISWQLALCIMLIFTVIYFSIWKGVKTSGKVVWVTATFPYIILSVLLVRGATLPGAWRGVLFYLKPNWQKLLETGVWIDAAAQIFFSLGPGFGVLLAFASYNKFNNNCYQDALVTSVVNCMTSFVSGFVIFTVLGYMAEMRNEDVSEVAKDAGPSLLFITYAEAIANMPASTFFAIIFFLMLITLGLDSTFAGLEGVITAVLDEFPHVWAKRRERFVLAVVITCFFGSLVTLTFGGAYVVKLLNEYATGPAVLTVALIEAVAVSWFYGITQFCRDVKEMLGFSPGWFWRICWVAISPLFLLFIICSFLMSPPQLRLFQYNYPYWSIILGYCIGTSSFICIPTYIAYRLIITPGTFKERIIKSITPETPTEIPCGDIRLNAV
T1 sequence (P31645 whole entry L563A): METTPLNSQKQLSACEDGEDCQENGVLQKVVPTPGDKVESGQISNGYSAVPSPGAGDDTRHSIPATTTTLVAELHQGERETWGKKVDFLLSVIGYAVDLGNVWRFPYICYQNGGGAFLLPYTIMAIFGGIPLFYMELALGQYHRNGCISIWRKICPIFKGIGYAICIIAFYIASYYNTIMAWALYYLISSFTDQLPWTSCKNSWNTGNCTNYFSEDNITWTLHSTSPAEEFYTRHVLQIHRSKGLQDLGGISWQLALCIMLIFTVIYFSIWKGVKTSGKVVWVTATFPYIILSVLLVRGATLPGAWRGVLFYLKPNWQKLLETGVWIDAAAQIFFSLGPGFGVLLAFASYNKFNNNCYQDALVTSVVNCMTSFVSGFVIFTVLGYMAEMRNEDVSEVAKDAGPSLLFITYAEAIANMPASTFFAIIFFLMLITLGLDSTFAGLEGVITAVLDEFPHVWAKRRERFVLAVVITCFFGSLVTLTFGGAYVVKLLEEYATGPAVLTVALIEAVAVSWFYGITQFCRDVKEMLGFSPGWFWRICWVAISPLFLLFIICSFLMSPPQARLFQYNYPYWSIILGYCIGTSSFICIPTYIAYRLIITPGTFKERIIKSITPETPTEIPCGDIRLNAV
T6 sequence (P31645 whole entry R564A): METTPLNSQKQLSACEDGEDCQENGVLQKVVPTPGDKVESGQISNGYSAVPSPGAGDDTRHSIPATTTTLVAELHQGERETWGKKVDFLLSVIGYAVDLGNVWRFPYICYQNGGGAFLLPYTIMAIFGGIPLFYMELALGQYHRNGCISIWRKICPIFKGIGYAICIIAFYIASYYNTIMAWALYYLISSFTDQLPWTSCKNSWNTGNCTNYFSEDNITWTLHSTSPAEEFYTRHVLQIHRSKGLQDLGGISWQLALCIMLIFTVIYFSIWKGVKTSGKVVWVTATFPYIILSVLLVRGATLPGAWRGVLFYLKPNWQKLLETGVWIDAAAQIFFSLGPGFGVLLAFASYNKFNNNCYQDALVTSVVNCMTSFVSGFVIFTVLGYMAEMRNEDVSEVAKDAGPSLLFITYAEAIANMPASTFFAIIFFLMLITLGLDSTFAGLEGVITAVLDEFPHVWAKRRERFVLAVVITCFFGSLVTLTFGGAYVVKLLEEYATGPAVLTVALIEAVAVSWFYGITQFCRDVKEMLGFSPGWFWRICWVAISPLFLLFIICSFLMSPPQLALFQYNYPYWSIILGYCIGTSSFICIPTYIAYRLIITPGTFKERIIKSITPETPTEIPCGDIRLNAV
T9 sequence (P31645 whole entry L565A): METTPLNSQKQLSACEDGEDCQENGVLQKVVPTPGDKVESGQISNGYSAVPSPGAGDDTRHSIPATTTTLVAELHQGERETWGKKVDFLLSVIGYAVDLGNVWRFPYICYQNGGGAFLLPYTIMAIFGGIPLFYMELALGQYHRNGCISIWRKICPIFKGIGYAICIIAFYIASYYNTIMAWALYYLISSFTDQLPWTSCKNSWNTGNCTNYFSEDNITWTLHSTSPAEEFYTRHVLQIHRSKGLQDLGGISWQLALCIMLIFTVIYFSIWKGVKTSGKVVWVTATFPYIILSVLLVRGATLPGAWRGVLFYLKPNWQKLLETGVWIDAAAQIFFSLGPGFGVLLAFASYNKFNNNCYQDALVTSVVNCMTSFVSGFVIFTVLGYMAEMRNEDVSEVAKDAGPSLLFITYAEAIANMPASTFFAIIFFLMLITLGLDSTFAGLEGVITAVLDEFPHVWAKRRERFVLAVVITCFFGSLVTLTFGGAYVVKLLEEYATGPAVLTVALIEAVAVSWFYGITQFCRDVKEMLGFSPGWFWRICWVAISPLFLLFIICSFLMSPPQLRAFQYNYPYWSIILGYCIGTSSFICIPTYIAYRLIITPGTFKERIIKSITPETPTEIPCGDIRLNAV
T3 sequence (P31645 whole entry F556A): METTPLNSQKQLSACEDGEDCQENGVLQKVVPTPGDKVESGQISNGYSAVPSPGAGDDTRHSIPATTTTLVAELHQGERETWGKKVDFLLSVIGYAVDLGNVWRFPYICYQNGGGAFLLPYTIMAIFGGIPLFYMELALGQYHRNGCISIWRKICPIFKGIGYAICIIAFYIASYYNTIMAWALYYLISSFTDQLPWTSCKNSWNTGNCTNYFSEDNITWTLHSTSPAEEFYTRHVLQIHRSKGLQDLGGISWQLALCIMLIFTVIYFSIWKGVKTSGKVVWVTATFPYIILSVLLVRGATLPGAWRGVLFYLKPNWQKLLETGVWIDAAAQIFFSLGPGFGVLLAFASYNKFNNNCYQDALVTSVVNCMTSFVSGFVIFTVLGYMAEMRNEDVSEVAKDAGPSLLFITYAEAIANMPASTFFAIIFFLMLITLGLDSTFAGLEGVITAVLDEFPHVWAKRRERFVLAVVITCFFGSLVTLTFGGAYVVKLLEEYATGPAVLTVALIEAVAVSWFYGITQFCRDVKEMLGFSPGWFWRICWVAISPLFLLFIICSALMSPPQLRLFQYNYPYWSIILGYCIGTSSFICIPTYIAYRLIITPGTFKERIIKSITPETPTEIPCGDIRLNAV
T8 sequence (P31645 whole entry Y95F): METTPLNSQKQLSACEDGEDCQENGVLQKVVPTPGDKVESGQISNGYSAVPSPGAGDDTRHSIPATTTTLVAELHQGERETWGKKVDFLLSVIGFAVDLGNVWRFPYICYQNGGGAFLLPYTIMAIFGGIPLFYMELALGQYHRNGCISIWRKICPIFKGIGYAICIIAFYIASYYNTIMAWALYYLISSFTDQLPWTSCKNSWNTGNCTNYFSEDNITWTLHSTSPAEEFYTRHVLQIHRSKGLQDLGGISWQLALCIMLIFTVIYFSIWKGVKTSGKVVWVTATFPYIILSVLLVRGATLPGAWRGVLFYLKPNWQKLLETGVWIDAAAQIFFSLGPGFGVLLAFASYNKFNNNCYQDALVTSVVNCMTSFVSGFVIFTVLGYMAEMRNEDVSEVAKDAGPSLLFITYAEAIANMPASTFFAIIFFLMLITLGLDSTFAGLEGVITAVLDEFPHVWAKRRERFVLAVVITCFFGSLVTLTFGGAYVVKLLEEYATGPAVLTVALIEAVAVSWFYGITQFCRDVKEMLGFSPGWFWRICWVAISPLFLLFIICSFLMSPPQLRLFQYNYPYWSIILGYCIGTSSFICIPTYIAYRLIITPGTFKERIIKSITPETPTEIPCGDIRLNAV
T5 sequence (P31645 whole entry Y579A): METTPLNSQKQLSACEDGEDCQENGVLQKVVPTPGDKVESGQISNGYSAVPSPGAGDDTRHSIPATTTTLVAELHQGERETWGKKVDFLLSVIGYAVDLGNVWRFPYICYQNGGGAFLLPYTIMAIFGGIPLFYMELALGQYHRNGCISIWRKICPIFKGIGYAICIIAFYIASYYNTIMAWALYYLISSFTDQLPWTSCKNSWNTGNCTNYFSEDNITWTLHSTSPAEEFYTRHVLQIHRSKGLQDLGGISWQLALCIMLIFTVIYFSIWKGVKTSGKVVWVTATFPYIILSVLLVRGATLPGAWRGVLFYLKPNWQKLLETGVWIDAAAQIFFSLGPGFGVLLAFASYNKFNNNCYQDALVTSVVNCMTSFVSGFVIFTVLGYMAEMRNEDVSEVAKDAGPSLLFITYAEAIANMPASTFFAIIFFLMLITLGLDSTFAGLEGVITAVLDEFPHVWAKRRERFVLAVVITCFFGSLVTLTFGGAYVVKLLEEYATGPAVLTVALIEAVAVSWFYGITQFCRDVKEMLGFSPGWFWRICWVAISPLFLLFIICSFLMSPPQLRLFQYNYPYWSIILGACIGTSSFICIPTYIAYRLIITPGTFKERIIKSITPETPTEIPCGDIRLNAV

COc1cc([C@@H]2OC[C@@H]3[C@H]2CO[C@H]3c2cc(OC)c(O)c(OC)c2)cc(OC)c1O [SYR, (-)-syringaresinol]
IC50 (hSERT L563A [1]): 6.28 ± 0.57 µM | IC50 (hSERT I327A): 53.2 ± 7.01 µM | IC50 (hSERT F556A): 21.6 ± 1.2 µM | IC50 (hSERT T583A [2]): 30.9 ± 0.93 µM | IC50 (hSERT Y579A): 16.3 ± 1.06 µM | IC50 (hSERT R564A [3]): 14.6 ± 1.59 µM | IC50 (hSERT E493N [4]): 9.16 ± 0.34 µM | IC50 (hSERT Y95F): 2.64 ± 0.12 µM | IC50 (hSERT L565A [5]): 9.98 ± 1.22 µM | IC50 (hSERT D328A): 39.2 ± 0.78 µM | SYR IC50 for ASP^+ binding relative to WT [6]: ≥ 100 fold | IC50 (hSERT Q562N): 99.9 ± 2.04 µM | IC50 (hSERT E493N [7]): 13.5 ± 1.3 µM | IC50 (hSERT T583A [8]): 8.68 ± 1.4 µM | IC50 (hSERT L563A [9]): 39 ± 0.92 µM | IC50 (hSERT L565A [10]): 21 ± 0.45 µM | IC50 (hSERT R564A [11]): 30.4 ± 1.42 µM | increase of SYR IC50 for APP^+ uptake or ASP^+ binding compared with WT (hSERT S2 mutants): more than 10 fold
